In US7989466B2, “Methods to inhibit or augment an inflammatory response” (Cambridge Enterprise Limited, priority 1999, dated 2011):
Like-named read-outs stand apart in the source and are kept apart here. Positions of bridges follow the written chain, without caps; N, C: chain ends. Non-standard residues stand in square brackets, D forms with d. Residues, ends and D or L forms follow the SMILES beside them. No end group written: not given here.

Experiments:
[1] = Mouse LD50 (modified LD50 technique); assay type: in vivo; details: for LD50: IV
[2] = Competition of 125I-MCP-1 binding to heparin-coated agarose beads; details: 10^−11 to 10^−4 M
Text: Chemokines bind to glycosaminoglycans on the cell surface, which may facilitate chemokine receptor binding and subsequent signaling. […] This was followed by a monophasic displacement curve at concentrations of approximately 10^−7 to 10^−5 M MCP-1.

[3] = test system: T cell-dependent antibody response; assay: Antibody response in mice immunized with sheep red blood cells; assay type: in vivo, mouse; details: T cell-independent response not prevented
[4] = test system: CD4 T cells; details: 5 ng
[5] = test system: LPS-induced serum TNF-α
[6] = test system: THP-1 cells; assay: Agonist activity: agent in the lower compartment of the THP-1 migration chamber; details: agent in place of chemokine
[7] = biological target: T1, short splice variant D2 dopamine receptor (Homo sapiens, UniProt P14416); assay: Dopamine receptor membrane binding (3H-Spiperone); details: 100 μM highest concentration tested; read-out: ED50 for competition of spiperone binding to short splice variant D2 dopamine receptor
T1 construct: purchased RBI/Sigma D-179
T1 sequence (P14416 1-414 isoform P14416-2): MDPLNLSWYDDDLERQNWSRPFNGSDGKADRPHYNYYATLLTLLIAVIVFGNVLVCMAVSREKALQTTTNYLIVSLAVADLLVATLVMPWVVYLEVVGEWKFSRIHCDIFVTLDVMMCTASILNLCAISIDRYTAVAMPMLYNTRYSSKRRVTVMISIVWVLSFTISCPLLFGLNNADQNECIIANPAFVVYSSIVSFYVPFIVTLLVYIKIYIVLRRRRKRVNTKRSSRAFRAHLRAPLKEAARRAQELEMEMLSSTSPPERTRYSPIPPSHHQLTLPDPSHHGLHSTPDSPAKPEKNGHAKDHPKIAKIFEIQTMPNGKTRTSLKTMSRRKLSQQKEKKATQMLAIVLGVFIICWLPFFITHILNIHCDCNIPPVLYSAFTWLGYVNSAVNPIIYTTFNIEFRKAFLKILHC
Experimental: For dopamine receptor binding, membranes (D-179, RBI/Sigma) are diluted into binding buffer (75 mM Tris pH 7.4, 12.5 mM MgCl2 and 2 mM EDTA). For example, 10 μl of membranes are diluted in 500 μl of binding buffer (i.e., 1:50 dilution), which is aliquoted into labelled tubes. Cold competitor or test competitor is added, (e.g., 5 μl of 100× stock solution; 5 μl of 1 mM haloperidol solution (H-100, RBI/Sigma in DMSO). Radioligand is then added (3H-Spiperone, TRK 818, Amersham, 250 μCi in 250 μl, 10.5 μM at 95 Ci/mmol). For competition studies, 0.5 nM is used. A 100× stock (i.e., 50 nM) is made by diluting the commercial stock 1:210 in binding buffer, and 5 μl is added to every tube. Control tubes have radioligand but no membranes. The mixtures are vortexed, then spun very briefly. The mixtures are then incubated for 1 hour at 27° C. in a water bath. The mixture is filtered through GF/C filters over a vacuum. Each filter is pre-soaked in polyethyleneimine (0.3% in water; add 1 ml of 10% stock (P-261; RBI/Sigma) to 33 ml of MilliQ water). The tubes are washed with 2-3 ml of wash buffer (50 mM Tris pH 7.4) and the wash filtered. The filters are then rinsed with 3×5 ml of wash buffer, air dried, placed in a scintillation vial and 4.5 ml of scintillant added. The activity on the filter is then determined.

[8] = test system: MIP1α induced human monocyte migration; assay: Human monocyte migration, MIP1α; assay type: cell-based; details: n.s. = no statistically significant inhibition
Experimental: (§1) Agents may also be screened in a chemotactic assay which employs human neutrophils, eosinophils, mast cells, basophils, platelets, lymphocytes or monocytes. For monocytes, 9 mls of fresh blood are transferred to a tube containing 1 ml of 3.8% sodium citrate, and left at room temperature for 15 minutes. Five mls of this anti-coagulated blood are carefully layered over 3.5 ml Polymorphprep® (Nycomed Pharma, Oslo), and centrifuged at 500 g for 35 minutes per the manufacturer's instructions. The top band at the sample/medium interface contains monocytes. The monocytes are carefully removed with a glass pipette, and reconstituted to the original volume (5 ml). The cells are washed with PBS plus 10% fetal calf serum, and centrifuged at 400 g for 10 minutes. The washing step is repeated three times before the cells are counted. Cells are resuspended at 1×10^7 cells/ml in RPMI-1640+10% fetal calf serum (FCS). The monocytes are cultured for two days at 37° C. in a humidified atmosphere of 5% CO2.
(§2) On day 2, the cells are counted, spun down, and reconstituted to 1×10^7 cells/ml in Gey's balanced salt solution+1 mg/ml bovine serum albumin (BSA). […]

[9] = test system: SDF-1α induced human monocyte migration; assay: Human monocyte migration, SDF-1α; assay type: cell-based; details: n.s. = no statistically significant inhibition
Experimental: as §1, §2

[10] = test system: HIV (IIIb), T-tropic; details: 100 μM peptide; for effect on HIV infection / replication in Jurkat cells, in words: reverse transcriptase assay; for inhibition of reverse transcriptase activity: Jurkat cells, HIV IIIb
[11] = test system: gp120; details: ns = not significantly different from control; >100 = ED50 not determined

CC[C@@H](C)[C@H]1NC(=O)[C@@H](CCC(N)=O)NC(=O)[C@H](N)CSSC[C@H](C(N)=O)NC(=O)[C@@H](CC(C)C)NC(=O)[C@@H](CC(=O)O)NC(=O)[C@H]2CCCN2C(=O)[C@@H](CCCCN)NC(=O)[C@@H](CCC(N)=O)NC(=O)[C@@H](CCCCN)NC(=O)[C@@H](Cc2c[nH]c3ccccc23)NC1=O (H-[dC][dQ][dI][dW][dK][dQ][dK][dP][dD][dL][dC]-NH2; disulfide 1-11; N-terminus assumed)
lethality after intraperitoneal administration ([1]; 11 mg i.p.): did not result in lethality | LD50 [1]: 11.4 mg/mouse | LD50 ([1]; in vivo, read-out: LD50): 569 mg/kg | displacement of 125I-MCP-1 from heparin-coated agarose beads [2]: did not result in displacement | T cell-dependent antibody response [3]: prevented | reduction of ConA proliferation of CD4 T cells [4]: < 3% | serum TNF-α in LPS treated mice, in words ([5]; i.v. loading dose and s.c. bolus 30 minutes before 583 μg LPS i.p.): dose dependent decrease | agonist activity [6]: No agonist activity was detected in the concentration range where inhibitory effects on chemokine-induced migration are seen (<1 μM)

C=CCCCCCCCCC(=O)N[C@H]1CCC(=O)NC1=O [A-I (NR58.4), [3S]-3-(undec-10-enoylamino)piperidine-2,6-dione]
EC50 [7]: > 100 µM | local tolerance at the site of injection ([5]; mouse, in vivo, sc): irritation was noted at the site of injection

EICADPKQKWVQ [peptide 3(1-12)[MCP-1]]
% inhibition at 100 μM versus MIP1α, human monocyte migration [8]: 120% | % inhibition at 100 μM versus SDF-1α, human monocyte migration [9]: 108% | effect on HIV infection / replication in Jurkat cells, in words ([10]; listed as Peptide 3(1-12)[MCP-1]): effective inhibitor of Jurkat cell infection by HIV | effect on HIV infection / replication in Jurkat cells, in words ([10]; listed as peptide 3): but not peptide 3 (100 μM) markedly inhibited virus replication

SYRRITSSKCPKEAV [peptide 2(1-15)[MCP-1]]
% inhibition at 100 μM versus MIP1α, human monocyte migration [8]: n.s. | % inhibition at 100 μM versus SDF-1α, human monocyte migration [9]: n.s. | inhibition of reverse transcriptase activity [10]: 75±10% | inhibition of reverse transcriptase activity ([10]; listed as Peptide 2): 75% | inhibition of reverse transcriptase activity ([10]; listed as peptide 2): 75% | effect on HIV infection / replication in Jurkat cells, in words [10]: more effective than peptide 3(1-12)[MCP-1] (SEQ ID NO:1), and as effective as SDF1α | gp120 ED-50 [11]: 0.4 µM | agonist activity [6]: weak agonist properties
